24 compounds from patent US20230257351A1, “SUBSTITUTED N-[…] HAVING P2X4 RECEPTOR ANTAGONISTIC ACTIVITY” (Bayer Aktiengesellschaft, priority 2020, published 2023) can be followed below.

This assay addresses T1, human P2X4 (Homo sapiens, UniProt Q99571).
T1 construct: expressed in transfected cells
T1 sequence (Q99571 1-388): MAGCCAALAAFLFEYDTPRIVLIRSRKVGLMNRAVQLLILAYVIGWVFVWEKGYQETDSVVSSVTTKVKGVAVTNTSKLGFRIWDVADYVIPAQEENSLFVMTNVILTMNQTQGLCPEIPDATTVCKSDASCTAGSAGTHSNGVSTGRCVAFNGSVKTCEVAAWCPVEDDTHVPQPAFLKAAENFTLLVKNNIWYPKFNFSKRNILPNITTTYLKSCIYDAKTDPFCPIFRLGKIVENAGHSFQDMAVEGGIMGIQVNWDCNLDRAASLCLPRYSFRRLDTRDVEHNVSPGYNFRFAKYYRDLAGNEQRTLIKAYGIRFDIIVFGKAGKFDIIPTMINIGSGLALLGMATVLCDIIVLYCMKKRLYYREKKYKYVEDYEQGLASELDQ
Description: Human P2X4 HEK Cell FLIPR Assay. It is filed as cell-based. The settings on record: HEK293 stably expressing human P2X4, agonist Bz-ATP 3 μM (EC80); for pIC50: read-out: Human P2X4 HEK Cells (FLIPR Assay) avg IC50. The method, then: Compounds were tested on a HEK293 cell line stably expressing human P2X4. Cells were cultured on poly-D-lysine-coated 384-well plates at a density of 15,000 cells/well and incubated overnight at 37° C., 5% CO2. P2X4 function was assessed by measuring intracellular calcium fluxes caused by Benzoylbenzoyl-ATP (Bz-ATP) using the calcium-chelating dye Fluo8-AM (Molecular Devices) with the Fluorescent Imaging Plate Reader Tetra (FLIPR^Tetra; Molecular Devices CA). On the day of the assay, the medium was removed and the cells were incubated for 30 min at 37° C. and 5% CO2 in 30 μl of dye buffer (Hank's balanced salt solution, 10 mM HEPES, 1.8 mM CaCl2, 1 mM MgCl2, 2 mM probenecid, 5 mM D-glucose monohydrate, 5 μM Fluo8-AM, pH=7.4). Compounds diluted in probenecid buffer (Hank's balanced salt solution, 10 mM HEPES, 1.8 mM CaCl2, 1 mM MgCl2, 2 mM probenecid, 5 mM D-glucose monohydrate, pH=7.4) at ten concentrations ranging from 25 μM to 1 nM (final concentration) were dispensed and incubated for 30 min at room temperature. […] The final assay volume was 50 μl and final DMSO concentration was 0.5%.
The fluorescence intensity reflecting intracellular calcium changes was recorded before and after Bz-ATP addition, at an excitation and emission wavelengths of 470-495 nm and 515-575 nm respectively.
The compounds were tested in triplicates and fluorescence intensity raw data normalized to the agonist control and fitted to the four-parameter logistic equation:
Y=Bottom+(Top−Bottom)/(1+10^((Log IC50−X)*HillSlope))
Assay plate acceptance was based on the signal window (S/B)[…] and the reference compound pIC50 within ±3σ the mean of historic pIC50 of the compound. Failure to meet two of the three criteria determined exclusion of the plate's results.

pIC50: −log10 of the molar value.

Take `COc1ccc(N(C(C)=O)c2cc(NC(=O)Cc3ccc(F)cc3Cl)ccn2)cc1F` [Example 78, N-{4-[2-(2-chloro-4-fluorophenyl)acetamido]pyridin-2-yl}-N-(3-fluoro-4-methoxyphenyl)acetamide]: the “Human P2X4 HEK Cells (FLIPR Assay) avg Efficacy” value (from here on “Human P2X4 HEK Cells”) was 94% and the negative-log IC50 (pIC50) (as a rule, the IC50 on a negative log10 scale, so that one unit is a factor of ten) is 6.24.
In the case of `CC(=O)N(c1ccc(S(C)(=O)=O)c(F)c1)c1cc(NC(=O)Cc2cccc(F)c2Cl)ccn1` [Example 81, N-{4-[2-(2-chloro-3-fluorophenyl)acetamido]pyridin-2-yl}-N-[3-fluoro-4-(methanesulfonyl)phenyl]acetamide], the “Human P2X4 HEK Cells” value is recorded as 97% and the pIC50 was 6.05.
Take `CC(=O)N(c1ccc(S(C)(=O)=O)c(F)c1)c1cc(NC(=O)Cc2c(Cl)cccc2Cl)ccn1` [Example 82, N-{4-[2-(2,6-dichlorophenyl)acetamido]pyridin-2-yl}-N-[3-fluoro-4-(methanesulfonyl)phenyl]acetamide]: the “Human P2X4 HEK Cells” value worked out at 97% and the negative logarithm of the IC50 (pIC50) is 6.30.
As for `CC(=O)N(c1cc(F)c(C)c(F)c1)c1cc(NC(=O)Cc2ccccc2Cl)ccn1` [Example 92, N-{4-[2-(2-chlorophenyl)acetamido]pyridin-2-yl}-N-(3,5-difluoro-4-methylphenyl)acetamide], the “Human P2X4 HEK Cells” value stood at 97% and the pIC50 is 6.25.
Take `CC(=O)N(c1cc(F)c(C)c(F)c1)c1cc(NC(=O)Cc2ccc(F)cc2Cl)ccn1` [Example 93, N-{4-[2-(2-chloro-4-fluorophenyl)acetamido]pyridin-2-yl}-N-(3,5-difluoro-4-methylphenyl)acetamide]: the “Human P2X4 HEK Cells” value stood at 98% and the negative logarithm of the IC50 (pIC50) was 6.15.
The like results for `CC(=O)N(c1cc(F)c(C)c(F)c1)c1cc(NC(=O)Cc2cccc(F)c2Cl)ccn1` [Example 94, N-{4-[2-(2-chloro-3-fluorophenyl)acetamido]pyridin-2-yl}-N-(3,5-difluoro-4-methylphenyl)acetamide] were, in that order, 97% and 6.15.
On to `CC(=O)N(c1cc(F)c(C)c(F)c1)c1cc(NC(=O)Cc2c(Cl)cccc2Cl)ccn1` [Example 95, N-{4-[2-(2,6-dichlorophenyl)acetamido]pyridin-2-yl}-N-(3,5-difluoro-4-methylphenyl)acetamide], for which the “Human P2X4 HEK Cells” value worked out at 100% and the negative logarithm of the IC50 (pIC50) was 6.16.
For `COc1c(F)cc(N(C(C)=O)c2cc(NC(=O)Cc3ccccc3Cl)ccn2)cc1F` [Example 96, N-{4-[2-(2-chlorophenyl)acetamido]pyridin-2-yl}-N-(3,5-difluoro-4-methoxyphenyl)acetamide] the same measures were 89% and 6.44.
For the compound `COc1c(F)cc(N(C(C)=O)c2cc(NC(=O)Cc3ccc(F)cc3Cl)ccn2)cc1F` [Example 97, N-{4-[2-(2-chloro-4-fluorophenyl)acetamido]pyridin-2-yl}-N-(3,5-difluoro-4-methoxyphenyl)acetamide], the “Human P2X4 HEK Cells” value stood at 89% and the pIC50 is 6.34.
Take `COc1c(F)cc(N(C(C)=O)c2cc(NC(=O)Cc3cccc(F)c3Cl)ccn2)cc1F` [Example 98, N-{4-[2-(2-chloro-3-fluorophenyl)acetamido]pyridin-2-yl}-N-(3,5-difluoro-4-methoxyphenyl)acetamide]: the “Human P2X4 HEK Cells” value worked out at 92% and the negative logarithm of the IC50 (pIC50) was 6.53.
The like results for `COc1c(F)cc(N(C(C)=O)c2cc(NC(=O)Cc3c(Cl)cccc3Cl)ccn2)cc1F` [Example 99, N-{4-[2-(2,6-dichlorophenyl)acetamido]pyridin-2-yl}-N-(3,5-difluoro-4-methoxyphenyl)acetamide] were, in that order, 95% and 6.35.
As to `CC(=O)N(c1cccc(OC(F)(F)F)c1)c1cc(NC(=O)Cc2ccccc2Cl)ccn1` [Example 102, N-{4-[2-(2-chlorophenyl)acetamido]pyridin-2-yl}-N-[3-(trifluoromethoxy)phenyl]acetamide], the “Human P2X4 HEK Cells” value turned out to be 99% and the pIC50 is 6.03.
Regarding `COc1cc(N(C(C)=O)c2cc(NC(=O)Cc3cccc(F)c3Cl)ccn2)ccc1F` [Example 103, N-{4-[2-(2-chloro-3-fluorophenyl)acetamido]pyridin-2-yl}-N-(4-fluoro-3-methoxyphenyl)acetamide], the “Human P2X4 HEK Cells” value is 97% and the negative logarithm of the IC50 (pIC50) is 6.12.
On to `COc1cc(N(C(C)=O)c2cc(NC(=O)Cc3c(Cl)cccc3Cl)ccn2)ccc1F` [Example 104, N-{4-[2-(2,6-dichlorophenyl)acetamido]pyridin-2-yl}-N-(4-fluoro-3-methoxyphenyl)acetamide], for which the “Human P2X4 HEK Cells” value came to 96% and the pIC50 was 6.07.
For `CC(=O)N(c1cc(NC(=O)Cc2cccc(C(F)(F)F)c2Cl)ccn1)c1ccccc1Cl` [Example 105, N-(2-chlorophenyl)-N-(4-{2-[2-chloro-3-(trifluoromethyl)phenyl]acetamido}pyridin-2-yl)acetamide], the “Human P2X4 HEK Cells” value was found to be 100% and the pIC50 is 6.11.
As for `CC(=O)N(c1cc(NC(=O)Cc2ccccc2Cl)ccn1)c1ccccc1Cl` [Example 106, N-(2-chlorophenyl)-N-{4-[2-(2-chlorophenyl)acetamido]pyridin-2-yl}acetamide], the “Human P2X4 HEK Cells” value was found to be 95% and the pIC50 is 6.12.
As for `CC(=O)N(c1cc(NC(=O)Cc2ccc(F)cc2Cl)ccn1)c1ccccc1Cl` [Example 107, N-{4-[2-(2-chloro-4-fluorophenyl)acetamido]pyridin-2-yl}-N-(2-chlorophenyl)acetamide], the “Human P2X4 HEK Cells” value is on record as 98% and the negative-log IC50 (pIC50) is 6.26.
Take `CC(=O)N(c1cc(NC(=O)Cc2cccc(F)c2Cl)ccn1)c1ccccc1Cl` [Example 108, N-{4-[2-(2-chloro-3-fluorophenyl)acetamido]pyridin-2-yl}-N-(2-chlorophenyl)acetamide]: the “Human P2X4 HEK Cells” value is 97% and the pIC50 is 6.11.
In the case of `CC(=O)N(c1cc(NC(=O)Cc2c(Cl)cccc2Cl)ccn1)c1ccccc1Cl` [Example 109, N-(2-chlorophenyl)-N-{4-[2-(2,6-dichlorophenyl)acetamido]pyridin-2-yl}acetamide], the “Human P2X4 HEK Cells” value amounted to 100% and the pIC50 was 6.19.
`CC(=O)N(c1cc(NC(=O)Cc2cccc(C(F)(F)F)c2Cl)ccn1)c1cc(F)ccc1Cl` [Example 110, N-(2-chloro-5-fluorophenyl)-N-(4-{2-[2-chloro-3-(trifluoromethyl)phenyl]acetamido}pyridin-2-yl)acetamide]: the “Human P2X4 HEK Cells” value was 95% and the pIC50 was 6.13.
In the case of `CC(=O)N(c1cc(NC(=O)Cc2ccccc2Cl)ccn1)c1ccccc1F` [Example 115, N-{4-[2-(2-chlorophenyl)acetamido]pyridin-2-yl}-N-(2-fluorophenyl)acetamide], the “Human P2X4 HEK Cells” value is on record as 96% and the negative-log IC50 (pIC50) is 6.41.
As for `CC(=O)N(c1cc(NC(=O)Cc2ccc(F)cc2Cl)ccn1)c1ccccc1F` [Example 116, N-{4-[2-(2-chloro-4-fluorophenyl)acetamido]pyridin-2-yl}-N-(2-fluorophenyl)acetamide], the “Human P2X4 HEK Cells” value is 97% and the pIC50 is 6.28.
Consider `CC(=O)N(c1cc(NC(=O)Cc2cccc(F)c2Cl)ccn1)c1ccccc1F` [Example 117, N-{4-[2-(2-chloro-3-fluorophenyl)acetamido]pyridin-2-yl}-N-(2-fluorophenyl)acetamide], for which the “Human P2X4 HEK Cells” value was determined as 95% and the pIC50 is 6.10.
For `CC(=O)N(c1cc(NC(=O)Cc2c(Cl)cccc2Cl)ccn1)c1ccccc1F` [Example 118, N-{4-[2-(2,6-dichlorophenyl)acetamido]pyridin-2-yl}-N-(2-fluorophenyl)acetamide] the same measures were 94% and 6.26.
